{"source": "ChEMBL document CHEMBL1201862", "about": "“PubChem BioAssay data set” (2004)", "key": {"[1]": {"assay": "Luminescence Cell-Based Dose Confirmation to Identify Activators of 5'UTR Stem-Loop Driven Alpha-Synuclein mRNA Translation in H4 Neuroglioblastoma Cells. [Related pubchem assays: 1829 (Project Summary), 1814 (Primary HTS)]", "assay_type": "functional"}, "[2]": {"assay": "Luminescence Cell-Based Dose Response to Identify Activators of Luciferase Translation or Activity in H4-C Neuroglioblastoma Cells. [Related pubchem assays: 1829 (Project Summary), 1814 (Primary HTS)]", "assay_type": "functional"}, "[3]": {"assay": "Luminescence Cell-Based Dose Response to Identify Activators of 5'UTR Stem-Loop Driven Prion Protein mRNA Translation in H4-C Neuroglioblastoma Cells. [Related pubchem assays: 1829 (Project Summary), 1814 (Primary HTS)]", "assay_type": "functional"}, "[4]": {"assay": "Luminescence Cell-Based Dose Response HTS to Identify Activators of Luciferase Translation or Activity in H4 […] Cells. [Related pubchem assays: 1829 (Project Summary), 1814 (Primary HTS)]", "assay_type": "functional"}, "[5]": {"assay": "Luminescence Cell-Based Dose Confirmation HTS to Identify Activators of 5'UTR Stem-Loop Driven Alpha-Synuclein mRNA Translation in H4 Neuroglioblastoma Cells. [Related pubchem assays: 1829 (Project Summary), 1814 (Primary HTS)]", "assay_type": "functional"}, "[6]": {"test_system": "H4", "assay": "Luminescence Cell-Based Dose Response HTS to Identify Activators of 5'UTR Stem-Loop Driven Prion Protein mRNA Translation in H4 Neuroglioblastoma Cells. [Related pubchem assays: 1829 (Project Summary), 1814 (Primary HTS)]", "assay_type": "functional", "conditions": "Homo sapiens"}, "[7]": {"assay": "growth inhibition of PfATP4-mutant resistant parasites – NITD609-resistant line, SYBR Green, dry powder, dose response (AID 1159571);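 further: parasites synchronized at ring stage by sorbitol before testing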", "assay_type": "functional, cell-based"}, "[8]": {"assay": "growth inhibition of yeast DHODH-expressing 3D7 parasites – SYBR Green, dry powder samples, dose response (AID 1159570);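 further: parasite growth measured after 72 hours of compound exposure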", "assay_type": "functional, cell-based"}, "[9]": {"assay": "P. falciparum Dd2 growth inhibitors, dose response, SYBR Green, cherry-picked samples (AID 1159567)", "assay_type": "functional, cell-based"}, "[10]": {"assay": "toxicity to human HepG2 hepatoma cells – cell-based, plate reader, dry powder samples, cytotoxicity control, dose response (AID 1159569);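 further: inhibitor potency with signal falling toward the positive control level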", "assay_type": "functional"}, "[11]": {"assay": "Dd2 malaria parasite growth inhibition potency – SYBR Green, dry powder samples, dose response (AID 1159566)", "assay_type": "functional, cell-based"}, "[12]": {"target": "T1, Heat shock factor protein 1 (Mus musculus, UniProt P38532)", "T1 sequence (P38532 whole entry)": "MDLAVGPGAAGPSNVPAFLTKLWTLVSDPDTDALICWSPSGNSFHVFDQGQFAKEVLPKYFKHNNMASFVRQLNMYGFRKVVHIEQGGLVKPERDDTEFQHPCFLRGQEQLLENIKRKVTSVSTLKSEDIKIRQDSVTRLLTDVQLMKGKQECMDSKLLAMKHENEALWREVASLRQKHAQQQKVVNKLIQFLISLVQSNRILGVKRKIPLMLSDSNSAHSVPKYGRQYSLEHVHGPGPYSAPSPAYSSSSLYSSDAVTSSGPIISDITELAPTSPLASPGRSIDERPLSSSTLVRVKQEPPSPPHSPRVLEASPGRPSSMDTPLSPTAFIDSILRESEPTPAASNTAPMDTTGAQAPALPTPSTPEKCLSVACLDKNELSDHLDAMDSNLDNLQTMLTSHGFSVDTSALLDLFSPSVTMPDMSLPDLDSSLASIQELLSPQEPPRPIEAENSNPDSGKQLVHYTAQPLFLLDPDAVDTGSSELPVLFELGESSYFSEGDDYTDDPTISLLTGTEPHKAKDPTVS", "assay": "enhancement of HSF1-driven luciferase signal – cell-based, NIH3T3, luminescence, dose retest, confirmation (AID 435004);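 further: stress induced by proteasome inhibitor MG132 added 30 min after compound; actives raise luminescence as potentiators of the MG132 stress response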", "assay_type": "functional"}, "[13]": {"target": "T2, Protein RecA (Mycobacterium tuberculosis, UniProt P9WHJ3)", "T2 sequence (P9WHJ3 whole entry)": "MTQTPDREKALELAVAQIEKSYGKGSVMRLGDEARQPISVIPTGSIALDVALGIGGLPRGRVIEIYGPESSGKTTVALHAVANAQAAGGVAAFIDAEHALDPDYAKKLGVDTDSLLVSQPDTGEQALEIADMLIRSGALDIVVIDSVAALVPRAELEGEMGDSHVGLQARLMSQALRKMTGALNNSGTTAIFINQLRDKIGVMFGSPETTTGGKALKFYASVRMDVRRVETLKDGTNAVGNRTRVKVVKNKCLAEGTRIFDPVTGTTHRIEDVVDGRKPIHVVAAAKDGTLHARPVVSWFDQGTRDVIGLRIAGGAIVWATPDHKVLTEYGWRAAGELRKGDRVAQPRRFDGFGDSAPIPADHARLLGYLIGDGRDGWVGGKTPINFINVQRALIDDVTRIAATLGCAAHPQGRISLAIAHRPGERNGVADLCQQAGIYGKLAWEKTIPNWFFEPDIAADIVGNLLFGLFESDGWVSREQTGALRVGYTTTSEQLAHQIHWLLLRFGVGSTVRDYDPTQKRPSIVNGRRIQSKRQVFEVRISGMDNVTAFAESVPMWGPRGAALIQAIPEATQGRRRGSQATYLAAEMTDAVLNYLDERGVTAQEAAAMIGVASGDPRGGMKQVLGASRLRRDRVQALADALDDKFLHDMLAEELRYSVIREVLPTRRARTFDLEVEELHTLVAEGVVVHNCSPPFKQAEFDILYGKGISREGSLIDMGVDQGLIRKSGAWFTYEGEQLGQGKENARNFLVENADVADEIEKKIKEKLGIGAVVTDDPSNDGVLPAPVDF", "assay": "Fluorescence Cell-Free Homogeneous Dose Retest to Identify Inhibitors of RecA-Intein Splicing Activity. [Related pubchem assays (depositor defined):AID2097, AID2223, AID489010, AID492950]", "assay_type": "functional"}, "[14]": {"assay": "reduced cellular PGC1a acetyl-lysine signal – cell-based, cherry-picked samples, dose response (AID 720514);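 further: potency may reflect raised or lowered acetylation signal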", "assay_type": "functional"}, "[15]": {"target": "T3, Replicative DNA helicase DnaB (Mycobacterium tuberculosis, UniProt P9WMR3)", "T3 sequence (P9WMR3 whole entry)": "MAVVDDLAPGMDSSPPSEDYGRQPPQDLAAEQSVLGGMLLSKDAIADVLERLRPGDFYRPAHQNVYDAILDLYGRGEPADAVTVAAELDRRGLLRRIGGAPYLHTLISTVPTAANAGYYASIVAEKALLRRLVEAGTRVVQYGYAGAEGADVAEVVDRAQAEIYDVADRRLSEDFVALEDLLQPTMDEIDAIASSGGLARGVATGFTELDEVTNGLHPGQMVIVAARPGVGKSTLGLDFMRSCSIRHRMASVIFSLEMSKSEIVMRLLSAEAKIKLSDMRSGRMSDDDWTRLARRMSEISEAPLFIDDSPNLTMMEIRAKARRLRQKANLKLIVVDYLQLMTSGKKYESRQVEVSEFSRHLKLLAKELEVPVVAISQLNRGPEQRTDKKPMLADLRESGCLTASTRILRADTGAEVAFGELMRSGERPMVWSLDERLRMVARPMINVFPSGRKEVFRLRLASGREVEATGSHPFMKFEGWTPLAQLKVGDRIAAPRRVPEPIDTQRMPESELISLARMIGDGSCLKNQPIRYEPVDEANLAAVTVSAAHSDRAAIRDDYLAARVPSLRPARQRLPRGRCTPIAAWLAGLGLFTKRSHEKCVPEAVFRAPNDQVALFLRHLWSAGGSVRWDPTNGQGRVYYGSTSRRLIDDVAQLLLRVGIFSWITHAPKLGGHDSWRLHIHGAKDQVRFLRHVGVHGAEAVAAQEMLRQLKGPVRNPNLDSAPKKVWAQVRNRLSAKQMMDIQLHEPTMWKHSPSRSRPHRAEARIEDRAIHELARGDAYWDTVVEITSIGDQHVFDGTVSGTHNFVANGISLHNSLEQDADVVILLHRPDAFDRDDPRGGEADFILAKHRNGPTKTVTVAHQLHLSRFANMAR", "assay": "DnaB intein splicing inhibitors, dose response, biochemical, cell-free fluorescence (AID 449749)", "assay_type": "functional"}, "[16]": {"assay": "antiviral protection against BTV-induced cell death – arbovirus, BSR cells, confirmation (AID 1250);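 further: protection from viral cytopathic effect measured as cell viability by ATP luminescence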", "assay_type": "functional"}, "[17]": {"target": "Glyceraldehyde-3-phosphate dehydrogenase (Homo sapiens, UniProt P04406)", "sequence (P04406 whole entry)": "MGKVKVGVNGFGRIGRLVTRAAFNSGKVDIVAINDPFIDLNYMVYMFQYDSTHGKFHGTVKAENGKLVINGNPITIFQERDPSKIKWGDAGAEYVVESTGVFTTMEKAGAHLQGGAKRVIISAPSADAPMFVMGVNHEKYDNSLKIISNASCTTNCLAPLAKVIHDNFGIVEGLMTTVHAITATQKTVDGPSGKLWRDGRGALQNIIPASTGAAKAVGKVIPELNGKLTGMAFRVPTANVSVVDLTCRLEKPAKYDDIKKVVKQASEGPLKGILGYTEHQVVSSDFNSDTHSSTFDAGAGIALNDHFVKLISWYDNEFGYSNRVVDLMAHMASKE"}, "[18]": {"target": "T4, Bcl-2-related protein A1 (Mus musculus, UniProt Q07440)", "T4 sequence (Q07440 whole entry)": "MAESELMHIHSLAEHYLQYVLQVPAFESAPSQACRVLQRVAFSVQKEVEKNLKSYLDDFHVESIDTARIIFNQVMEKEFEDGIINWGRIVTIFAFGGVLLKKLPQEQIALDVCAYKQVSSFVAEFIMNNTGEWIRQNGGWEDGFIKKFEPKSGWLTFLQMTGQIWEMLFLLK", "assay": "Bfl-1 binding inhibitors, SAR follow-up, biochemical, fluorescence polarization (AID 1070)"}, "[19]": {"target": "T4, Bcl-2-related protein A1", "assay": "small-molecule antagonists of Bfl-1/BH3 interaction – biochemical, TR-FRET, mouse Bfl-1, confirmation (AID 621);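 further: TR-FRET binding of GST-Bfl-1 to FITC-labelled Bid peptide via terbium antibody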"}, "[20]": {"target": "T5, Protein Tat (Human immunodeficiency virus type 1 group M subtype B (isolate HXB2)(HIV-1), UniProt P04608)", "T5 sequence (P04608 whole entry)": "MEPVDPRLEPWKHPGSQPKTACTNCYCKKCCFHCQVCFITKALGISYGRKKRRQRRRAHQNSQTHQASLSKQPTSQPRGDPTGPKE", "assay_type": "functional"}, "[21]": {"assay": "viability loss in THP-1 monocytes – THP-1 cells, cytotoxicity control for Vif-APOBEC3G degradation inhibitor project, dose response (AID 1117359)", "assay_type": "functional", "conditions": "THP-1"}, "[22]": {"target": "T6, Ubiquitin-conjugating enzyme E2 N (Homo sapiens, UniProt P61088)", "T6 sequence (P61088 whole entry)": "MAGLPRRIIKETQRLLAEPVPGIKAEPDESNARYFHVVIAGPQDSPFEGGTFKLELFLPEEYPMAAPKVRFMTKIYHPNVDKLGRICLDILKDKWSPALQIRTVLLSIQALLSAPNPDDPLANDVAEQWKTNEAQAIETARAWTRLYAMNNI", "assay_type": "functional"}, "[23]": {"target": "T6, Ubiquitin-conjugating enzyme E2 N", "assay_type": "functional", "remark": "listed apart in the source"}, "[24]": {"target": "T4, Bcl-2-related protein A1", "assay_type": "functional"}}, "note": "The source made the active and inactive calls."}
{"smiles": "CCOC(=O)c1s/c(=N\\C(=O)c2ccc(C)c(C)c2)n(C)c1C", "values": [{"measurement": "EC50", "setting": "[1]", "result": "718 nM (active)"}, {"measurement": "EC50", "setting": "[2]", "result": "0.601 µM (active)"}, {"measurement": "EC50", "setting": "[3]", "result": "543 nM (active)"}, {"measurement": "EC50", "setting": "[4]", "result": "< 100 nM (active)"}]}
{"smiles": "Cc1ccc(Nc2[nH]cnc3ncnc2-3)cc1Cl", "values": [{"measurement": "EC50", "setting": "[1]", "result": "604 nM (active)"}, {"measurement": "EC50", "setting": "[5]", "result": "< 100 nM (active)"}, {"measurement": "EC50", "setting": "[2]", "result": "> 12 µM (not active)"}, {"measurement": "EC50", "setting": "[6]", "result": "> 120 µM (not active)"}, {"measurement": "EC50", "setting": "[3]", "result": "745 nM (active)"}, {"measurement": "EC50", "setting": "[4]", "result": "268 nM (inconclusive)"}]}
{"smiles": "COc1ccc2c3c([nH]c2c1)[C@H](CO)N(Cc1ccncc1)CC31CN(Cc2ccc(-c3ccccn3)cc2)C1", "values": [{"measurement": "AC50", "setting": "[7]", "result": "2.8 µM (active)"}, {"measurement": "AC50", "setting": "[8]", "result": "3.42 µM (active)"}, {"measurement": "AC50", "setting": "[9]", "result": "2.36 µM (active)"}, {"measurement": "AC50", "setting": "[10]", "result": "43.3 µM (active)"}, {"measurement": "AC50", "setting": "[11]", "result": "2.97 µM (active)"}]}
{"smiles": "O=S(=O)(c1ccccc1)c1ncc(C(F)(F)F)cc1Cl", "values": [{"measurement": "EC50", "setting": "[12]", "result": "15.9 µM (active)"}, {"measurement": "EC50", "setting": "[13]", "result": "3.16 µM (active)"}, {"measurement": "AC50", "setting": "[14]", "result": "11 µM (active)"}, {"measurement": "AC50", "setting": "[15]", "result": "18.4 µM (active)"}]}
{"smiles": "O=C(Nc1ccccc1C(=O)O)c1ccc(NC(=O)c2ccc(Br)o2)cc1", "values": [{"measurement": "IC50", "setting": "[16]", "result": "35.4 µM (active)"}]}
{"smiles": "COc1cccc(N2C(=O)C(Cl)=C(N3CCN(CCOCCO)CC3)C2=O)c1", "values": [{"measurement": "IC50", "setting": "[17]", "result": "> 100 µM (not active)"}, {"measurement": "IC50", "setting": "[18]", "result": "8.85 µM (active)"}, {"measurement": "IC50", "setting": "[19]", "result": "9.11 µM (active)"}]}
{"smiles": "Cc1ccc(-c2cc(-c3ccc4c(c3)OCO4)c(C#N)c(N)n2)o1", "values": [{"measurement": "IC50", "setting": "[20]", "result": "30.5 µM (inconclusive)"}, {"measurement": "CC50", "setting": "[21]", "result": "24.7 µM (active)"}]}
{"smiles": "Cc1cccc(C)c1NC(=O)Cn1c(=O)n(CCCC(=O)NC2CCN(Cc3ccccc3)CC2)c(=O)c2ccccc21", "values": [{"measurement": "IC50", "setting": "[22]", "result": "4.06 µM (active)"}, {"measurement": "IC50", "setting": "[23]", "result": "6.42 µM (active)"}, {"measurement": "IC50", "setting": "[24]", "result": "> 20 µM (inactive)"}]}
{"smiles": "CCC(NC(=O)Nc1ccc(O)cc1)(C(F)(F)F)C(F)(F)F", "values": [{"measurement": "IC50", "setting": "[20]", "result": "40.2 µM (inconclusive)"}]}
